We go through two compounds from patent US20100068200A1, “Methods and Compositions for Inhibiting Atherosclerosis and Vascular Inflammation” (THE UNIVERSITY OF CONNECTICUT, priority 2008, published 2010).

In assay [1] the test system is S1p2r−/− macrophage. Put plainly: reversal of caspase-11 null phenotype of S1p2r−/− macrophage. Format: cell-based, mouse. The following applies: MG132 1-20 μM, chloroquine 10-100 μM, data not shown.
Assay [2] relates to caspase-11. Put plainly: caspase-11 protein expression in elicited peritoneal macrophages (western blot). The following applies: mouse elicited peritoneal macrophages; oxLDL 50 μg/ml or TNFα 50 ng/ml, 8 hrs. Format: cell-based. How it is done: Isolation of Thioglycolate-Elicited Peritoneal Cells. Mice were injected i.p. with 2 ml of 3% thioglycolate. Four days later, the peritoneal fluid was collected, and cells monolayer was prepared by addition of 1 ml/well (2×10^6 macrophages) into 35 mm culture dishes. Macrophage adhesion was allowed to proceed for 4 h at 37° C. in a 5% CO2 atmosphere.
Immunoprecipitation experiments. Cell or spleen extracts were prepared with RIPA buffer (25 mM Tris-HCl pH 7.6, 150 mM NaCl, 1% NP-40, 1% sodium deoxycholate, 0.1% SDS). Caspase-1 was immunoprecipitated with polyclonal rabbit anti-caspase-1 antibody (Santa Cruz) crosslinked to protein A beads and Caspase-11 was immunoprecipitated with monoclonal rat anti-caspase-11 antibody, crosslinked to protein G beads. For western blot analysis, BMDM were treated with LPS (1 μg/ml, E. coli serotype 026:B6; Sigma). Aortas or cells were solubilized in RIPA buffer or 2×SDS-sample buffer (20 mM DTT, 6% SDS, 0.25 M Tris pH 6.8, 10% Glycerol, bromophenyl blue, protease inhibitors, 1 mM sodium orthovanadate and 1 mM NaF), sonicated, boiled and separated by SDS-PAGE gel electrophoresis. […] Cells were treated as indicated with 1 μg/ml LPS (Sigma) and 50 ng/ml TNFα (Sigma) Immunoreactive bands density was quantified with Image Pro Plus Analysis Software (Media Cybernetics).

Where a SMILES comes first, the peptide text is derived from it. The star is where a group is joined. Cbz = O=C(OCc1ccccc1)*

For `CC(C)C[C@@H](C=O)NC(=O)[C@H](CC(C)C)NC(=O)[C@H](CC(C)C)NC(=O)OCc1ccccc1` [MG132] (Cbz-Leu-Leu-Leu-aldehyde), in assay [1], the “reversal of caspase-11 null phenotype” value is on record as “could not reverse”.

For the compound TNFα, the “caspase-11 protein expression after stimulus” value in assay [2] was “upregulates”.
